According to patent US9714249B2 (Novartis AG, priority 2013, dated 2017):

Key:
BRD2 (His-Brd2(60-472)) = BRD2 (His-Brd2(60-472)) (Homo sapiens (Human), UniProt P25440); experiment: TR-FRET in-vitro binding assay for BRD2; details: acetyl-histone H4 peptide
Experimental: All assays were performed in 384 well microtiter plates. Each assay plate contained 8-point serial dilutions for 40 test compounds, plus 16 high- and 16 low controls. Liquid handling and incubation steps were done on an Innovadyne Nanodrop Express equipped with a robotic arm (Thermo CatX, Perkin Elmer/Caliper Twister II) and an incubator (Liconic STX40, Thermo Cytomat 2C450). The assay plates were prepared by addition of 50 nl per well of compound solution in 90% DMSO HummingBird nanodispenser (Zinsser Analytic). The assay was started by stepwise addition of 4.5 μl per well of bromo domain protein (50 mM HEPES, pH 7.5, 0.005% Tween20, 0.1% BSA, 50 mM NaCl, 45 nM His-Brd2(60-472) or 45 nM His-Brd3(20-477) or 45 nM His-Brd4(44-477) all proteins produced in-house) and 4.5 μl per well of peptide solution (50 mM HEPES, pH 7.5, 0.005% Tween20, 0.1% BSA, 50 mM NaCl, 60 nM acetyl-histone H4 (AcK 5, 8, 12, 16) (Biosyntan GmbH)). Reactions were incubated at 30° C. for 35 minutes. Subsequently 4.5 μl per well detection mix (50 mM HEPES, pH 7.5, 0.005% Tween20, 0.1% BSA, 50 mM NaCl, 3 nM Eu-labeled anti-His6 antibody, 21 nM streptavidin-allophycocyanin) were added. After 35 minutes incubation at 30° C., plates were measured in a Perkin Elmer EnVision multilabel reader. Concentrations causing 50% inhibition (1050) values were determined from percent inhibition values at different compound concentrations by non-linear regression analysis.
Test compounds were dissolved in DMSO (10 mM) and transferred into 1.4 mL flat bottom or V-shaped Matrix tubes carrying a unique 2D matrix. The stock solutions were stored at […] if not used immediately. For the test procedure the vials were defrosted and identified by a scanner whereby a working sheet was generated that guided the subsequent working steps. Compound dilutions were made in 96 well plates. This format enabled the assay of maximally 40 individual test compounds at 8 concentrations (single points) including 4 reference compounds, if desired (known BET inhibitors from the prior art, for this and other assays of the type disclosed herein). The dilution protocol included the production of “pre-dilution plates”, “master plates” and “assay plates”.
Pre-dilution plates: 96 polypropylene well plates were used as pre-dilution plates. A total of 4 pre-dilution plates were prepared including 10 test compounds each on the plate positions A1-A10, one standard compound at A11 and one DMSO control at A12. All dilution steps were done on a HamiltonSTAR robot. Master plates: 30 μL of individual compound dilutions including standard compound and controls of the 4 “pre-dilution plates” were transferred into a 384 “master plate” including the following concentrations 10000, 3003, 1000, 300, 100, 30, 10 and 3 μM, respectively in 90% of DMSO. Assay plates: Identical “assay plates” were then prepared by pipetting 50 nL each of compound dilutions of the “master plates” into 384-well “assay plates” by means of a HummingBird 384-channel dispenser. These plates were used directly for the assay which was performed in a total volume of 13.55 μL. This led to a final compound concentration of 37, 11, 3.7, 1.1, 0.37, 0.11, 0.037 and 0.011 μM and a final DMSO concentration of 0.37% in the assay. Cell Growth Inhibition Assay

K-562 cells = experiment: Cell growth inhibition assay (CellTiter-Glo), K-562; format: cell-based, human; details: K-562, 4 days; for GI50: Homo sapiens, K562, 96 h, half-maximal growth inhibition; for K-562 TGI: total growth inhibition
Experimental: The human leukemia cell lines MV-4-11, THP-1 and K-562 were employed to characterize the effect of BET inhibitors on cellular proliferation and viability. Cells were obtained from the American Type Culture Collection (ATCC) and cultured at 37° C. in a humidified 5% CO2 incubator in the following media: MV-4-11: DMEM high glucose (Animed #1-26F01-I), 10% FCS (Animed #2-01F26-I), 4 mM L-Glutamine (Animed #5-10K50), 1 mM Sodium Pyruvate (Animed # G03625P), 1× Penicillin-Streptomycin (Animed # F12478P); K-562: Iscove's MEM (Animed #1-28F16-I), 10% FCS (Animed #2-01F26-I), 4 mM L-Glutamine (Animed #5-10K50), 1× Penicillin-Streptomycin (Animed # F12478P); THP-1: RPMI-1640 (Animed #1-41F01-I), 10% FCS (Animed #2-01F26-I), 2 mM L-Glutamine (Animed #5-10K50), 10 mM HEPES (Animed #5-31F100), 1 mM Sodium Pyruvate (Animed # G03625P), 1× Penicillin-Streptomycin (Animed # F12478P). The AML lines MV-4-11 and THP-1 are very sensitive to BET inhibitors and show massive cell death upon BET inhibition (Zuber et al., Nature, 478 (2011), 524-8). Compound-mediated suppression of cell proliferation/viability was assessed by quantification of cellular ATP levels using the CellTiter-Glo (CTG) reagent (Promega). Briefly, cells were seeded in 20 μl fresh medium into 384-well plates, followed by addition of 5 μl medium containing compound dilutions at 5-fold their final intended concentration. Dose-response effects were assessed by 3-fold serial dilutions of the test compound, starting at 10 μM. Following incubation of the cells for 4 days at 37° C. and 5% CO2, the effect of inhibitors on cell viability was quantified following addition of 20 μl CTG and luminescence quantification (integration time: 100 ms) as per vendor manual, using a correspondingly equipped Tecan M200 multi-mode platereader (TECAN, Switzerland). For data analysis, the assay background value determined in wells containing medium, but no cells, was subtracted from all data points. To enable differentiation of cytotoxic from cytostatic compounds, the number of viable cells is assessed relative to that observed at the time of compound addition using a separate cell plate (day 0). The effect of a particular test compound concentration on cell proliferation/viability is expressed as percentage of the background- and day 0-corrected luminescence reading obtained for cells treated with vehicle only (DMSO, 0.1% final concentration), which is set as 100%, whereas that luminescence reading for wells containing medium is set as −100%. Compound concentrations leading to half-maximal (1050) and total growth inhibition (TGI) were determined using standard four parameter curve fitting.

Sequence of BRD2 (His-Brd2(60-472)) (P25440 60-472, species assumed): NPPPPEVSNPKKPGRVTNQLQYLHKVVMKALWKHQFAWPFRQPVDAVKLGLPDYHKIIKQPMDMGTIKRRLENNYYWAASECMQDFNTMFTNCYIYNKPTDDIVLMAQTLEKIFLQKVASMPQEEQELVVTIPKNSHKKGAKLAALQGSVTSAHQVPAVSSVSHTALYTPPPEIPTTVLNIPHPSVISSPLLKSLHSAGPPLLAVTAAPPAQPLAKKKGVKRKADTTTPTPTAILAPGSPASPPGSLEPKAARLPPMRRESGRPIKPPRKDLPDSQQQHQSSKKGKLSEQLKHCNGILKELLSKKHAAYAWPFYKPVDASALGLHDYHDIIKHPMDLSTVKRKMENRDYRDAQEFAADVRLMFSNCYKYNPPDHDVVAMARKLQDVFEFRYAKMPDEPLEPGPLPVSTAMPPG

IC50 (BRD2 (His-Brd2(60-472))) [nM] | GI50 (K-562 cells) [nM] | SMILES | K-562 TGI (K-562 cells) [nM]
80 | 302 | Cc1nn(-c2cccnc2F)c2c1C(=O)N(c1cc(C)c(=O)n(C)c1)C2c1ccc(Cl)cc1 (stereo not drawn) [Example 19, 6-(4-chlorophenyl)-5-(1,5-dimethyl-6-oxo-1,6-dihydropyridin-3-yl)-1-(2-fluoropyridin-3-yl)-3-methyl-5,6-dihydropyrrolo[3,4-c]pyrazol-4(1H)-one] | >10000
97 | 484 | COc1ccc(-n2nc(C)c3c2C(c2ccc(Cl)cc2)N(c2cc(C)c(=O)n(C)c2)C3=O)cc1 (stereo not drawn) [Example 13, 6-(4-chlorophenyl)-5-(1,5-dimethyl-6-oxo-1,6-dihydropyridin-3-yl)-1-(4-methoxyphenyl)-3-methyl-5,6-dihydropyrrolo[3,4-c]pyrazol-4(1H)-one] | >10000
110 | 174 | COc1ncccc1-n1nc2c(c1C)C(=O)N(c1cc(C)c(=O)n(C)c1)[C@@H]2c1ccc(Cl)cc1 [Example 26, (R)-6-(4-chlorophenyl)-5-(1,5-dimethyl-6-oxo-1,6-dihydropyridin-3-yl)-2-(2-methoxypyridin-3-yl)-3-methyl-5,6-dihydropyrrolo[3,4-c]pyrazol-4(2H)-one] | >10000
49 | 239 | COc1ccc(-n2nc(C)c3c2C(c2ccc(Cl)cc2)N(c2cc(C)c(=O)n(C)c2)C3=O)cn1 (stereo not drawn) [Example 20b, 6-(4-chlorophenyl)-5-(1,5-dimethyl-6-oxo-1,6-dihydropyridin-3-yl)-1-(6-methoxypyridin-3-yl)-3-methyl-5,6-dihydropyrrolo[3,4-c]pyrazol-4(1H)-one] | >10000
94 | 558 | Cc1[nH]nc2c1C(=O)N(c1cc(Cl)c(=O)n(C)c1)C2c1ccc(Cl)cc1 (stereo not drawn) [Example 6, 5-(5-chloro-1-methyl-6-oxo-1,6-dihydropyridin-3-yl)-6-(4-chlorophenyl)-3-methyl-5,6-dihydropyrrolo[3,4-c]pyrazol-4(2H)-one] | >10000
70 | 640 | COc1ncccc1-c1nn(C)c2c1C(=O)N(c1cc(C)c(=O)n(C)c1)C2c1ccc(Cl)cc1 (stereo not drawn) [Example 15, 6-(4-chlorophenyl)-5-(1,5-dimethyl-6-oxo-1,6-dihydropyridin-3-yl)-3-(2-methoxypyridin-3-yl)-1-methyl-5,6-dihydropyrrolo[3,4-c]pyrazol-4(1H)-one] | >10000
48.5 | 197 | COc1ncccc1-c1nn(C)c2c1C(=O)N(c1cc(C)c(=O)n(C)c1)[C@@H]2c1ccc(Cl)cc1 [Example 16, (R)-6-(4-chlorophenyl)-5-(1,5-dimethyl-6-oxo-1,6-dihydropyridin-3-yl)-3-(2-methoxypyridin-3-yl)-1-methyl-5,6-dihydropyrrolo[3,4-c]pyrazol-4(1H)-one] | >10000
160 | 999 | COc1ncc(-n2nc3c(c2C)C(=O)N(c2cc(Cl)c(=O)n(C)c2)C3c2ccc(Cl)cc2)cn1 (stereo not drawn) [Example 8b, 5-(5-chloro-1-methyl-6-oxo-1,6-dihydropyridin-3-yl)-6-(4-chlorophenyl)-2-(2-methoxypyrimidin-5-yl)-3-methyl-5,6-dihydropyrrolo[3,4-c]pyrazol-4(2H)-one] | >10000
84 | 336 | Cc1nn(C)c2c1C(=O)N(c1cc(C)c(=O)n(C)c1)C2c1ccc(Cl)cc1 (stereo not drawn) [Example 10, 6-(4-chlorophenyl)-5-(1,5-dimethyl-6-oxo-1,6-dihydropyridin-3-yl)-1,3-dimethyl-5,6-dihydropyrrolo[3,4-c]pyrazol-4(1H)-one] | >10000
100 | 510 | COc1ncc(-n2nc3c(c2C)C(=O)N(c2cc(C)c(=O)n(C)c2)C3c2ccc(Cl)cc2)cn1 (stereo not drawn) [Example 21b, 6-(4-chlorophenyl)-5-(1,5-dimethyl-6-oxo-1,6-dihydropyridin-3-yl)-2-(2-methoxypyrimidin-5-yl)-3-methyl-5,6-dihydropyrrolo[3,4-c]pyrazol-4(2H)-one] | >10000
38 | 127 | Cc1nn(C2CC2)c2c1C(=O)N(c1cc(C)c(=O)n(C)c1)C2c1ccc(Cl)cc1 (stereo not drawn) [Example 11, 6-(4-chlorophenyl)-1-cyclopropyl-5-(1,5-dimethyl-6-oxo-1,6-dihydropyridin-3-yl)-3-methyl-5,6-dihydropyrrolo[3,4-c]pyrazol-4(1H)-one] | >10000
32 | 548 | COc1ncccc1-n1nc2c(c1C)C(=O)N(c1cc(Cl)c(=O)n(C)c1)C2c1ccc(Cl)cc1 (stereo not drawn) [Example 7b, 5-(5-chloro-1-methyl-6-oxo-1,6-dihydropyridin-3-yl)-6-(4-chlorophenyl)-2-(2-methoxypyridin-3-yl)-3-methyl-5,6-dihydropyrrolo[3,4-c]pyrazol-4(2H)-one] | >10000

SMILES | IC50 (BRD2 (His-Brd2(60-472))) [nM] | GI50 (K-562 cells) [nM] | K-562 TGI (K-562 cells) [nM]
COc1ncccc1-n1nc(C)c2c1[C@@H](c1ccc(Cl)cc1)N(c1cc(C)c(=O)n(C)c1)C2=O [Example 25, (R)-6-(4-chlorophenyl)-5-(1,5-dimethyl-6-oxo-1,6-dihydropyridin-3-yl)-1-(2-methoxypyridin-3-yl)-3-methyl-5,6-dihydropyrrolo[3,4-c]pyrazol-4(1H)-one] | 130 | 206 | >10000
